Data on three molecules can be found in US20170196175A1, “COMPOSITIONS FOR THE DELIVERY OF AGROCHEMICALS TO THE ROOTS OF A PLANT” (ADAMA MAKHTESHIM LTD., priority 2014, published 2017).

One data set relates to Solanum Nigrum. In words: Weed development and mortality (Example 11). The format is in vivo. As to conditions: for Weed control, unit versus spray practice: damage of weed buds from 13 days to end of trial. An excerpt:
Weeds: 30 seeds of Solanum Nigrum per pot.
Analysis of weeds parameters: Fresh biomass, size and total area covered by weeds per pot.

Data set [1] is described as follows: Diffusion of Atrazine and Mesotrione from units submerged in free water. The class given is physicochemical. As to conditions: over 5 days. The method, then: A unit (each from the table above) was placed within a 500 cc vial. 250 cc of DI water were added. The vial was cover with punched Parafilm and stored at room temperature. After 24 hours, the free water, which didn't absorbed by the polymer, were drained and stored in a cold room. DI water at the same volume was refilled into the vial. Repeated this stage after 72 and 120 hours.

For data set [2] the following is noted: soil application studied as part of registration process, 28 DAP; cited from earlier work.
For data set [3] the following is noted: Example 12; cited from earlier work.
Data set [4] in a line: Azoxystrobin content in pepper leaves (Example 12). The class given is in vivo. As for the experimental part: Planting/harvesting dates: (47 days). Following harvest, unit samples from all treatments were excavated gently and were quantified for roots penetration and total root length. A core from the middle of each sample was cut and analyzed for root content. Root count in both vertical and horizontal axes and total volume were used estimating the root total length within a single unit. Total leaves biomass of each plant was analyzed to Azoxystrobin content in qualified laboratory (Bactochem, Israel).
Azoxystrobin application through the soil was studied as part of its registration process. The concentration in pepper leaves was measured over time from application. Similar Azoxystrobin concentrations in leaves were found in both commercial and current trial (tenth of ppm). […] This significant difference may inform the potential of the unit for protecting the plant for longer periods compared to current application practice.

Another data set deals with maize. Nature of the data set: Crop selectivity (Example 11). The class given is in vivo. An excerpt: Soil: 10 liter pots (surface area of 0.045 m^2) filled with Rehovot Sand (High sand fraction, low OM, low EC, low CEC, and High pH).
Crops: 6 maize plants per pot following herbicide application (high demand to fertilizers with selectivity).
Analysis of crop development parameters: Height and fresh biomass.

In the case of `CCNc1nc(Cl)nc(NC(C)C)n1` [Atrazine], the “Weed control, unit versus spray practice” value with Solanum Nigrum is “no difference between unit and spray practices”. Besides, the “Dose released from the new units to the surrounding free water” value in data set [1] was “up to 10%”.
As to `CO/C=C(/C(=O)OC)c1ccccc1Oc1cc(Oc2ccccc2C#N)ncn1` [Azoxystrobin], in data set [2], the “Azoxystrobin residue in commercial leaves” value was “no residue were found”. For the same molecule, in data set [3], the DT50 is 100 to 150 days. In addition, the “Azoxystrobin concentration in unit leaves” value in data set [4] (47 DAP) is on record as “effective concentrations were found”. Further, the “Difference in Azoxystrobin concentration in leaves between fully fertilized and no fertilizer” value in data set [4] (DAP 47) was determined as 5 fold. Moreover, the “Azoxystrobin concentration in leaves” value in data set [4] (pepper, unit and commercial trial) is listed as “tenth of ppm”.
Turning to `CS(=O)(=O)c1ccc(C(=O)C2C(=O)CCCC2=O)c([N+](=O)[O-])c1` [Mesotrione], the “Crop selectivity (crop height, color, final fresh biomass)” value with maize (double and fourfold doses) is “yellowish and slight shorter (fourfold only), yet no difference was found in fresh biomass”; with maize (standard dose), “selective”. In the data set with Solanum Nigrum, the “Weed control, unit versus spray practice” value was “significant advantages of unit over spray”. The “Weed control, half application rate in unit versus full spray rate” value with Solanum Nigrum (in vivo) is recorded as “more effective than full spray rate”. Also, in data set [1], the “Dose released from the new units to the surrounding free water” value is “up to 25%”.
